Experimental data reported in patent US11318154B2 (priority 2019, dated 2022).

What was measured:
[1] = test system: TcdB-induced disruption in colon epithelium; experiment: Mice colon ligation loop model with TcdB injection, H&E histological scoring; type: in vivo, C57BL/6 mice; details: intraperitoneal pre-treatment daily for two days, 10 μg TcdB in loop, 8 h
Procedure: The inventors used a mice colon ligation loop model to mimic C. difficile infection as TcdB is released into the lumen of the colon during C. difficile infection. All procedures were performed according to the animal protocol approved by the Cornell University IACUC (2017-0112). 6-8 weeks old of C57BL/6 mice were administrated with glycyrrhizin acid (50 mg/kg) daily via intraperitoneal injection two days before surgery. After overnight fasting, mice were anaesthetized and dissected via a midline laparotomy. A length of about 2 cm colon tissue was ligated and either saline or TcdB was injected into ligated loop for treatment. Mice were sutured and allowed to recover. After 8 hours, mice were euthanized and the ligated colon segments were excised and subjected to H&E staining. HE scoring was blindly assessed by a pathologist.

C. difficile VPI 10463 = experiment: C. difficile mice model (spore challenge), survival; type: in vivo; details: C57BL/6 mice, 1×10^5 C. difficile VPI10463 spores by gavage, daily injection
Procedure: To further determine the in vivo protective effect of glycyrrhizin on mice, a C. difficile mice model was established particularly the one as described in Guo, S. et al, (2015), Vaccine 33, 1586-1595. Briefly, C57BL/6 mice were given water mixed with a mixture of kanamycin (Sigma, MO) (0.4×10^−3 mg/L), gentamicin (Sigma, MO) (0.035×10^−3 mg/L), colistin (Sigma, MO) (850 U/mL), metronidazole (Sigma, MO) (0.215×10^−3 mg/L), and vancomycin (Sigma, MO) (0.045×10^−3 mg/L) for 3 days. All mice were then provided with regular autoclaved water for 2 days and administered with a single dose of clindamycin (Sigma, MO) (10 mg/kg) intraperitoneally 1 day before the C. difficile challenge. Mice were injected with glycyrrhizin daily on or before the day of C. difficile VPI 10463 spores challenge. All mice were then challenged with 1×10^5 of prepared C. difficile (strain VPI10463) spores by gavage feeding. The mice were intensively monitored daily after challenge for the presence and severity of diarrhea and other symptoms of illness or mortality. Body weight was measured once a day at the same time each day. Mice judged to be in a moribund state were euthanized by carbon dioxide.

CC1(C)[C@@H](O[C@H]2O[C@H](C(=O)O)[C@@H](O)[C@H](O)[C@H]2O[C@@H]2O[C@H](C(=O)O)[C@@H](O)[C@H](O)[C@H]2O)CC[C@]2(C)[C@H]3C(=O)C=C4[C@@H]5C[C@@](C)(C(=O)O)CC[C@]5(C)CC[C@@]4(C)[C@]3(C)CC[C@@H]12 [glycyrrhizin]
epithelial layer damage of ligated colon tissue (histology) [1]: less epithelial layer damages | survival at the end of experiment (C. difficile VPI 10463): 100%
